Laboratory results as given in patent US4200628A, “Novel aminoglycoside derivatives” (Shionogi & Co., Ltd., priority 1977, dated 1980).
Values after ≈ are worked out from the molar mass of the structure shown.

How the values were obtained:
Test in all cases: MIC, antimicrobial activity
Type in all cases: cell-based
Proteus vulgaris TB-615 = conditions: for MIC: Proteus vulgaris, TB615, Proteus vulgaris TB-615, tobramycin resistant strain, read-out: Minimum Inhibitory Concentration (MIC); for Minimum Inhibitory Concentration (MIC): Proteus vulgaris TB-615, tobramycin resistant strain
[1] = test system: Staphylococcus epidermidis TB-775; conditions: for MIC: Staphylococcus epidermidis, TB775, Staphylococcus epidermidis TB-775, tobramycin resistant strain, read-out: Minimum Inhibitory Concentration (MIC); for Minimum Inhibitory Concentration (MIC): Staphylococcus epidermidis TB-775, tobramycin resistant strain
[2] = test system: Pseudomonas aeriginosa TB-151; conditions: for MIC: Pseudomonas, TB151, read-out: Minimum Inhibitory Concentration (MIC), Pseudomonas aeriginosa TB-151, tobramycin resistant strain; for Minimum Inhibitory Concentration (MIC): Pseudomonas aeriginosa TB-151, tobramycin resistant strain
[3] = test system: Pseudomonas aeruginosa TB-121; conditions: for MIC: Pseudomonas aeruginosa, TB121, Pseudomonas aeruginosa TB-121, tobramycin resistant strain, read-out: Minimum Inhibitory Concentration (MIC); for Minimum Inhibitory Concentration (MIC): Pseudomonas aeruginosa TB-121, tobramycin resistant strain

`NC[C@H]1O[C@H](O[C@H]2[C@H](O)[C@@H](O[C@H]3O[C@H](CO)[C@@H](O)[C@H](N)[C@H]3O)[C@H](NC(=O)C(O)C3CCN3)C[C@@H]2N)[C@H](N)C[C@@H]1O` (some centres unmarked) [(2), 1-N-[2-hydroxy-2-(azetidin-2-yl)acetyl]tobramycin] was tested, and the MIC (Proteus vulgaris TB-615) was greater than 100 µg/mL, the MIC [1] was 100 µg/mL (≈ 172 µM) and the MIC [2] was 12.5 µg/mL (≈ 21.5 µM). For the same molecule, the MIC [3] was 12.5 µg/mL (≈ 21.5 µM).
For `NC[C@H]1O[C@H](O[C@H]2[C@H](O)[C@@H](O[C@H]3O[C@H](CO)[C@@H](O)[C@H](N)[C@H]3O)[C@H](N)C[C@@H]2N)[C@H](N)C[C@@H]1O` [TOB, tobramycin, reference compound], the MIC (Proteus vulgaris TB-615) was 25 µg/mL (≈ 53.5 µM) and the MIC [2] was 100 µg/mL (≈ 214 µM).
For `NC[C@H]1O[C@H](O[C@H]2[C@H](O)[C@@H](O[C@H]3O[C@H](CO)[C@@H](O)[C@H](N)[C@H]3O)[C@H](NC(=O)C(O)C3CNCCN3)C[C@@H]2N)[C@H](N)C[C@@H]1O` (single isomer, unassigned) [(9), 1-N-[2-hydroxy-2-(piperazin-2-yl)acetyl]tobramycin], the “Minimum Inhibitory Concentration (MIC)” value (Proteus vulgaris TB-615) was 50.0 µg/mL, the “Minimum Inhibitory Concentration (MIC)” value [1] was 50.0 µg/mL and the “Minimum Inhibitory Concentration (MIC)” value [2] was 25.0 µg/mL. For the same molecule, the “Minimum Inhibitory Concentration (MIC)” value [3] was 12.5 µg/mL.
`NC[C@H]1O[C@H](O[C@H]2[C@H](O)[C@@H](O[C@H]3O[C@H](CO)[C@@H](O)[C@H](N)[C@H]3O)[C@H](NC(=O)C(O)C3CNCCN3)C[C@@H]2N)[C@H](N)C[C@@H]1O` (single isomer, unassigned) [(8), 1-N-[2-hydroxy-2-(piperazin-2-yl)acetyl]tobramycin] was tested, and the “Minimum Inhibitory Concentration (MIC)” value (Proteus vulgaris TB-615) was 12.5 µg/mL, the MIC [1] was 25 µg/mL (≈ 41 µM) and the “Minimum Inhibitory Concentration (MIC)” value [2] was 6.2 µg/mL. For the same molecule, the “Minimum Inhibitory Concentration (MIC)” value [3] was 6.2 µg/mL.
In the case of `NC[C@H]1O[C@H](O[C@H]2[C@H](O)[C@@H](O[C@H]3O[C@H](CO)[C@@H](O)[C@H](N)[C@H]3O)[C@H](NC(=O)C(O)C3CCNC3)C[C@@H]2N)[C@H](N)C[C@@H]1O` (some centres unmarked) [(1), 1-N-[2-hydroxy-2-(pyrrolidin-3-yl)acetyl]tobramycin], the MIC (Proteus vulgaris TB-615) is reported as 12.5 µg/mL (≈ 21 µM), the MIC [1] is reported as 6.2 µg/mL (≈ 10.4 µM) and the MIC [2] is reported as 6.2 µg/mL (≈ 10.4 µM). It also gave an MIC [3] of 6.2 µg/mL (≈ 10.4 µM).
For `NC[C@H]1O[C@H](O[C@H]2[C@H](O)[C@@H](O[C@H]3O[C@H](CO)[C@@H](O)[C@H](N)[C@H]3O)[C@H](NC(=O)C(O)C3CCCN3)C[C@@H]2N)[C@H](N)C[C@@H]1O` (some centres unmarked) [(5), 1-N-[2-hydroxy-2-(pyrrolidin-2-yl)acetyl]tobramycin], the “Minimum Inhibitory Concentration (MIC)” value (Proteus vulgaris TB-615) was 100.0 µg/mL, the MIC [1] was 100 µg/mL (≈ 168 µM) and the “Minimum Inhibitory Concentration (MIC)” value [2] was 100.0 µg/mL. For the same molecule, the “Minimum Inhibitory Concentration (MIC)” value [3] was 25.0 µg/mL.
With `NC[C@H]1O[C@H](O[C@H]2[C@H](O)[C@@H](O[C@H]3O[C@H](CO)[C@@H](O)[C@H](N)[C@H]3O)[C@H](NC(=O)C(O)C3CCCN3)C[C@@H]2N)[C@H](N)C[C@@H]1O` (some centres unmarked) [(6), 1-N-[2-hydroxy-2-(pyrrolidin-2-yl)acetyl]tobramycin] the “Minimum Inhibitory Concentration (MIC)” value (Proteus vulgaris TB-615) was 25.0 µg/mL, the “Minimum Inhibitory Concentration (MIC)” value [1] was 50.0 µg/mL and the “Minimum Inhibitory Concentration (MIC)” value [2] was 12.5 µg/mL. The “Minimum Inhibitory Concentration (MIC)” value [3] was 6.2 µg/mL.
`NC[C@H]1O[C@H](O[C@H]2[C@H](O)[C@@H](O[C@H]3O[C@H](CO)[C@@H](O)[C@H](N)[C@H]3O)[C@H](NC(=O)C(O)C3CNC3)C[C@@H]2N)[C@H](N)C[C@@H]1O` (some centres unmarked) [(3), 1-N-[2-hydroxy-2-(azetidin-3-yl)acetyl]tobramycin] gave an MIC (Proteus vulgaris TB-615) of 12.5 µg/mL (≈ 21.5 µM), an MIC [1] of 6.2 µg/mL (≈ 10.7 µM) and an MIC [2] of 3.1 µg/mL (≈ 5.34 µM). It also gave an MIC [3] of 3.1 µg/mL (≈ 5.34 µM).
For `NC[C@H]1O[C@H](O[C@H]2[C@H](O)[C@@H](O[C@H]3O[C@H](CO)[C@@H](O)[C@H](N)[C@H]3O)[C@H](NC(=O)C(O)C3CCCN3)C[C@@H]2N)[C@H](N)C[C@@H]1O` (some centres unmarked) [(7), 1-N-[2-hydroxy-2-(pyrrolidin-2-yl)acetyl]tobramycin], the “Minimum Inhibitory Concentration (MIC)” value (Proteus vulgaris TB-615) was greater than 100.0 µg/mL, the “Minimum Inhibitory Concentration (MIC)” value [1] was greater than 100.0 µg/mL and the “Minimum Inhibitory Concentration (MIC)” value [2] was 50.0 µg/mL. The “Minimum Inhibitory Concentration (MIC)” value [3] was 100.0 µg/mL.
For `NC[C@H]1O[C@H](O[C@H]2[C@H](O)[C@@H](O[C@H]3O[C@H](CO)[C@@H](O)[C@H](N)[C@H]3O)[C@H](NC(=O)C(O)C3CCCNC3)C[C@@H]2N)[C@H](N)C[C@@H]1O` (some centres unmarked) [(4), 1-N-[2-hydroxy-2-(piperidin-3-yl)acetyl]tobramycin], the MIC (Proteus vulgaris TB-615) was 25 µg/mL (≈ 41.1 µM), the MIC [1] was 25 µg/mL (≈ 41.1 µM) and the MIC [2] was 25 µg/mL (≈ 41.1 µM). The MIC [3] was 25 µg/mL (≈ 41.1 µM).
